Assays:
[1] = tested on: Neisseria meningitidis DSM 25942; experiment: Disc diffusion, inhibition of growth zones; assay type: cell-based; conditions: N. meningitidis
Protocol: (§1) Fifteen strains of microorganisms from different species were used. The growth inhibition zones were evaluated in two independent experiments (n = 2 in each of them), and the potential inhibitors of microbial growth are presented in Table 3. The hydrazine and hydrazide derivatives of 3-formylchromone constitute a class of potential antimicrobial agents and are worthy of further investigation. […] In case of N. meningitidis (result with *) the action of 9 was noted just for 100 µg/mL and the influence in concentration of 200 µg/mL was not observed.
(§2) The microbial reference strains representing different families of bacteria and fungi, pathogenic for man and animals, were used. The 15 strains were derived from international microbial collections held by the Department of Pharmaceutical Microbiology and Microbiological Diagnostics of the Medical University of Lodz: Candida albicans ATCC 10231, Enterococcus faecalis ATCC 29212, Klebsiella pneumoniae ATCC 700603, Pseudomonas aeruginosa NCTC 6749, Proteus vulgaris CCM 1799, Staphylococcus epidermidis ATCC 12228, Shigella flexneri ATCC 12022, Streptococcus pneumoniae ATCC 49619, Streptococcus pyogenes ATCC 19615, Corynebacterium jeikeium K411, Escherichia coli ATCC 25922, Staphylococcus aureus NCTC 4135, Streptococcus dysgalactiae subsp. equisimilis ATCC 12394, Neisseria meningitidis DSM 25942, Listeria monocytogenes PCM 2191.
(§3) The strains were stored at −80 °C, frozen in a 1:1 mixture of Brain Heart Infusion (BHI) broth and glycerol. The reference strains, depending on the growth requirements, were grown on a solid medium—nutrient agar, nutrient agar with 5% addition of lambs defibrinated blood or (in the case of Corynebacterium jeikeium) Triptic Soy Agar (TSA) with the addition of sheep blood, yeast extract and Tween-80. The susceptibility of the strains to chemical compounds was measured analogously to the adopted method of diffusion and disc preparation of antibiotics for compounds introduced into treatment. After receiving the pure culture of the reference strain, obtained from frozen samples and grown on the appropriate medium for growth requirements, suspensions of the tested strains were prepared in a physiological NaCl solution with a density of 0.5 on the McFarland scale. These suspensions were seeded with a cotton ball over the entire surface of the test medium. Discs impregnated with the test compound at a concentration of 100 or 200 µg/mL were then placed on it and incubated for 24 h at 37 °C.

[2] = tested on: L929 cell line (mouse fibroblast cell line); experiment: XTT assay, cell proliferation study; assay type: cell-based; conditions: for IC50 / The Range of Influence [%, Control = 100%] / Stimulating effect on proliferation: L929, XTT; for IC50: 24 h incubation, 0.01–1250 µmol/L; for The Range of Influence [%, Control = 100%]: viability over 0.01–1250 µmol/L
Protocol: (§4) Four independent experiments (n = 4 for each used concentration) were performed. […] This indicates good or very good (in the case of 1, 3, 5, 8, 11) selectivity of action. […] Due to the dual action of these compounds, it would be advisable to study their effect on stimulation of proliferation at concentrations below 0.01 μmol/L. This dual action may be desirable during therapy, because the dosage may affect the nature of the compounds.
The mouse fibroblast cell line L929 (Sigma-Aldrich) was grown in MEM (Minimum Essential Medium) (Biowest, Nuaillé, France) containing 10% of Fetal Bovine Serum (Biowest), 1 mmol/L sodium pyruvate (Biological Industries, Cromwell, CT, USA), 0.5 mmol/L non-essential amino acids (Sigma-Aldrich) and 100 units/mL penicillin with […] streptomycin (Biological Industries) in an incubator at 37 °C with 5% CO2. Cells were plated and grown to 80% confluence before the initiation of the assay.
(§5) The XTT assay was used to evaluate cell metabolic activity. […] The number of viable cells is correlated with the colour intensity determined by photometric measurements. XTT (Serva, Heidelberg, Germany) was dissolved in MEM without phenol red (PAN-Biotech, Aidenbach, Germany) or DMEM without phenol red (PAN-Biotech) at a concentration of 1 mg/mL. Phenazine metosulphate (PMS) (Serva) was dissolved in phosphate-buffered saline (PBS, 5 mmol/L). PMS solution was then added to the XTT solution at a concentration of 25 μM. Investigated compounds were dissolved in dimethyl sulfoxide (DMSO) to obtain stock solutions.
(§6) L929 and EA.hy926 cells were seeded into 96-well plates at a density of 1 × 10^4 cells per well. They were cultured for 24 h in the incubator (37 °C and 5% CO2). After that time, the medium was removed. Then the 100 µL of medium containing investigated compounds (in the range of concentration 0.01–1250 µmol/L) or only culture medium (blank control) were added. Cisplatin was used as a reference compound. Cells were further incubated for 24 h. At the third day, the old medium were removed and cells were washed with PBS. 100 µL of culture medium with the additional 50 µL of the XTT/PMS solution were added to each well. Plates were incubated in the dark for 3 h at 37 °C. Then, the plates were swayed and an aliquot of 100 µL from each well was transferred into the corresponding well of a new plate. Finally, the absorbance was measured by using the microplate reader (Synergy H1, BioTek, Winooski, VT, USA) at a wavelength of 450 nm. The cell viability was expressed as a percentage of the control values (blanks).

[3] = tested on: EA.hy926 cell line (the human umbilical vein, somatic cell hybrid); experiment: XTT assay, cell proliferation study; assay type: cell-based; conditions: for IC50 / The Range of Influence [%, Control = 100%] / Stimulating effect on proliferation: EA.hy926, XTT; for IC50: 24 h incubation, 0.01–1250 µmol/L; for The Range of Influence [%, Control = 100%]: viability over 0.01–1250 µmol/L; for Selectivity of action (IC50 EA.hy926 versus L929): IC50 lower for EA.hy926 than for L929
Protocol: as §4
The EA.hy926 cell line (the human umbilical vein, somatic cell hybrid, American Type Culture Collection, Manassas, VA, USA) was used to evaluate the cytotoxicity of novel compounds. Cells were grown in Dulbecco’s Modified Eagle’s Medium (DMEM) which contains 10% of Fetal Bovine Serum (Biowest), 2 mmol/L glutamine (Sigma-Aldrich) and 100 units/mL penicillin with […] streptomycin (Biological Industries). Cells were plated and grown in an incubator at 37 °C with 5% CO2 to 80% confluence before the initiation of the assay.
as §5, §6

[4] = tested on: Fifteen strains of microorganisms from different species; experiment: Initial antimicrobial screening by disc diffusion on the whole panel; assay type: cell-based; conditions: 15 strains, discs at 100 or 200 µg/mL
Protocol: as §1, §2, §3

[5] = tested on: Streptococcus pneumoniae ATCC 49619; experiment: Disc diffusion, inhibition of growth zones; assay type: cell-based; conditions: S. pneumoniae; discs at 100 or 200 µg/mL, 24 h at 37 °C
Protocol: as §1, §2, §3

[6] = tested on: Staphylococcus aureus NCTC 4135; experiment: Disc diffusion, inhibition of growth zones; assay type: cell-based; conditions: S. aureus; discs at 100 or 200 µg/mL, 24 h at 37 °C
Protocol: as §1, §2, §3

[7] = tested on: Staphylococcus epidermidis ATCC 12228; experiment: Disc diffusion, inhibition of growth zones; assay type: cell-based; conditions: S. epidermidis; discs at 100 or 200 µg/mL, 24 h at 37 °C
Protocol: as §1, §2, §3

[8] = tested on: Streptococcus pyogenes ATCC 19615; experiment: Disc diffusion, inhibition of growth zones; assay type: cell-based; conditions: S. pyogenes; discs at 100 or 200 µg/mL, 24 h at 37 °C
Protocol: as §1, §2, §3

Row | Compound | Influence on growth at 200 µg/mL ([1]; disc at 200 µg/mL) | Inhibition of growth zones (lowest effective studied concentration) ([1]; discs at 100 or 200 µg/mL, 24 h at 37 °C) | IC50 [2] | The Range of Influence [%, Control = 100%] [2] | IC50 [3] | The Range of Influence [%, Control = 100%] [3] | Inhibition of microbial growth (result in words) [4] | Inhibition of growth zones (lowest effective studied concentration) [5] | Stimulating effect on proliferation [2] | Stimulating effect on proliferation [3] | Selectivity of action (IC50 EA.hy926 versus L929) [3] | Inhibition of growth zones (lowest effective studied concentration) [6] | Inhibition of growth zones (lowest effective studied concentration) [7] | Inhibition of growth zones (lowest effective studied concentration) [8] | IC50 value lower than ligand 5 ([2]; L929, complex 11 compared with ligand 5) | IC50 value lower than ligand 5 ([3]; EA.hy926, complex 11 compared with ligand 5) | IC50 ([2]; Mus musculus) | melting point
1 | O=c1c(C=NNc2c(F)c(F)c(F)c(F)c2F)coc2ccccc12 [Compound 9, 3-(Pentafluorophenyl-hydrazonomethyl)-chromen-4-one] | not observed | 100 µg/mL | 386 µM | 13.92–85.11% | 253 µM | 13.15–69.88% | exhibit antimicrobial potential |  |  |  |  |  |  |  |  |  |  | 
2 | O=c1c(C=NNc2cc(F)ccc2F)coc2ccccc12 [Compound 1, 3-[(2,5-Difluorophenyl)-hydrazonomethyl]-chromen-4-one] |  |  | 209 µM | 27.64–101.8% | 59.1 µM | 14.79–106.26% | exhibit antimicrobial potential | 100 µg/mL | weak stimulating effect | weak stimulating effect | very good |  |  |  |  |  |  | 
3 | Complex of 4-Fluorobenzoic acid [1-(4-oxo-4H-chromen-3-yl)-meth-(E)-ylidene]-hydrazide with Cu (II) [Compound 11] |  |  | 35 µM | 10.30–75.02% |  | 8.58–53.23% | exhibit antimicrobial potential |  |  |  | very good | 100 µg/mL | 100 µg/mL | 200 µg/mL | 46.89% | 77.78% |  | 
4 | O=c1c(C=NNc2ccccc2C(F)(F)F)coc2ccccc12 [Compound 10, 3-[(2-Trifluoromethylphenyl)-hydrazonomethyl]-chromen-4-one] |  |  | 1210 µM | 48.62–73.47% | 645 µM | 31.21–94.69% | exhibit antimicrobial potential |  |  |  |  |  | 100 µg/mL |  |  |  |  | 
5 | O=c1c(C=NNc2ccc(C(F)(F)F)cc2)coc2ccccc12 [Compound 3, 3-[(4-Trifluoromethylphenyl)-hydrazonomethyl]-chromen-4-one] |  |  |  | 55.91–96.98% | 975 µM | 37.40–101.33% | not able to inhibit microbial growth |  |  | slightly stimulated | very good |  |  |  |  |  |  | 
6 | O=c1c(C=NNc2c(F)cc(F)cc2F)coc2ccccc12 [Compound 8, 3-[(2,4,6-Trifluorophenyl)-hydrazonomethyl]-chromen-4-one] |  |  | 98.5 µM | 38.11–64.40% | 18.1 µM | 23.31–63.94% | not able to inhibit microbial growth |  |  |  | very good |  |  |  |  |  |  | 
7 | O=c1c(C=NNc2cc(C(F)(F)F)cc(C(F)(F)F)c2)coc2ccccc12 [Compound 4, 3-[(3,5-Bis-trifluoromethylphenyl)-hydrazonomethyl]-chromen-4-one] |  |  | 1030 µM | 45.61–101.31% | 534 µM | 28.46–102.18% | exhibit antimicrobial potential |  | weak stimulating effect | weak stimulating effect |  |  | 100 µg/mL |  |  |  |  | 
8 | O=c1c(C=NNc2c(F)c(F)cc(F)c2F)coc2ccccc12 [Compound 6, 3-[(2,3,5,6-Tetrafluorophenyl)-hydrazonomethyl]-chromen-4-one] |  |  | 728 µM | 40.05–93.11% | 578 µM | 24.47–97.86% | not able to inhibit microbial growth |  |  |  |  |  |  |  |  |  |  | 
9 | O=C(N/N=C/c1coc2ccccc2c1=O)c1ccc(F)cc1 [Compound 5, 4-Fluorobenzoic acid [1-(4-oxo-4H-chromen-3-yl)-meth-(E)-ylidene]-hydrazide] |  |  |  | 16.03–56.35% |  | 11.81–60.64% | not able to inhibit microbial growth |  |  |  | very good |  |  |  |  |  | 65.9 µM | 201 to 202 °C
10 | N.N.[Cl][Pt][Cl] [Cisplatin, reference compound] |  |  | 74.4 µM | 8.49–55.70% | 67.4 µM | 8.71–75.14% |  |  |  |  |  |  |  |  |  |  |  | 
11 | Cc1ccc(F)cc1NN=Cc1coc2ccccc2c1=O [Compound 7, 3-[(5-Fluoro-2-methylphenyl)-hydrazonomethyl]-chromen-4-one] |  |  | 954 µM | 44.89–96.11% | 953 µM | 42.43–101.05% | exhibit antimicrobial potential |  |  | slightly stimulated |  |  | 100 µg/mL |  |  |  |  | 
